Source: patent publication US12060355B2, “Compounds for use in the treatment of fascioliasis” (Merck Patent GmbH, priority 2018, dated 2024)

Tested on: human HepG2 cell lines
Assay type: cell-based
Settings: human HepG2 cell line

Compound	Cytotox HepG2 [µM]
CCc1nc2cnc(-c3ccc(F)c(C(F)(F)F)c3)cn2c1-c1ccc2[nH]ncc2c1F [Example 37, 4-fluoro-5-{2-ethyl-6-[4-fluoro-3-(trifluoromethyl)phenyl]imidazo[1,2-a]pyrazin-3-yl}-1H-indazole]	13.1
Fc1ccc(-c2cn3c(-c4ccc5[nH]ncc5c4F)c(C4CC4)nc3cn2)cc1S(F)(F)(F)(F)F [Example 57, 2-Cyclopropyl-3-(4-fluoro-1H-indazol-5-yl)-6-(4-fluoro-3-pentafluorosulfanyl-phenyl)-imidazo[1,2-a]pyrazine]	14.8
CC(C)c1cccc(-c2cn3c(-c4ccc5[nH]ncc5c4F)c(C(F)(F)F)nc3cn2)c1 [Example 66, 3-(4-Fluoro-1H-indazol-5-yl)-6-(3-isopropyl-phenyl)-2-trifluoromethyl-imidazo[1,2-a]pyrazine]	12.9
Fc1ccc(-c2cn3c(-c4ccc5[nH]ncc5c4F)c(C(F)(F)F)nc3cn2)cc1S(F)(F)(F)(F)F [Example 65, 3-(4-Fluoro-1H-indazol-5-yl)-6-(4-fluoro-3-pentafluorosulfanyl-phenyl)-2-trifluoromethyl-imidazo[1,2-a]pyrazine]	11.1
CC1(c2nc3cnc(-c4ccc(F)c(C(F)(F)F)c4)cn3c2-c2c(F)cc(O)cc2F)CC1 [Example 33, 3,5-difluoro-4-[2-(1-methyl-cycloprop-1-yl)-6-[4-fluoro-3-(trifluoromethyl)phenyl]imidazo[1,2-a]pyrazin-3-yl]phenol]	7.9
Oc1cc(F)c(-c2c(C3CC3)nc3cnc(-c4ccc(F)c(C(F)(F)F)c4)cn23)c(F)c1 [Example 34, 4-(2-cyclopropyl-6-(4-fluoro-3-(trifluoromethyl)phenyl)imidazo[1,2-a]pyrazin-3-yl)-3,5-difluorophenol]	8.9
CCc1nc2cnc(-c3ccc(F)c(C(C)C)c3)cn2c1-c1ccc2[nH]ncc2c1F [Example 75, 2-Ethyl-3-(4-fluoro-1H-indazol-5-yl)-6-(4-fluoro-3-isopropyl-phenyl)-imidazo[1,2-a]pyrazine]	11.3
Fc1c(-c2c(C3CC3)nc3cnc(-c4cccc(S(F)(F)(F)(F)F)c4)cn23)ccc2[nH]ncc12 [Example 46, 2-cyclopropyl-3-(4-fluoro-1H-indazol-5-yl)-6-(3-(pentafluoro-λ6-sulfaneyl)phenyl)imidazo[1,2-a]pyrazine]	20.7
Cc1nc2cnc(-c3ccc(F)c(C(F)(F)F)c3)cn2c1-c1c(F)cc(O)cc1F [Example 16, 3,5-difluoro-4-[2-methyl-6-[4-fluoro-3-(trifluoromethyl)phenyl]imidazo[1,2-a]pyrazin-3-yl]phenol]	7.6
Fc1c(-c2c(C(F)(F)F)nc3cnc(-c4cccc(OC(F)(F)F)c4)cn23)ccc2[nH]ncc12 [Example 72, 3-(4-Fluoro-1H-indazol-5-yl)-6-(3-trifluoromethoxy-phenyl)-2-trifluoromethyl-imidazo[1,2-a]pyrazine]	9.7
CC(C)c1cc(-c2cn3c(-c4ccc5[nH]ncc5c4F)c(C4CC4)nc3cn2)ccc1F [Example 79, 2-Cyclopropyl-3-(4-fluoro-1H-indazol-5-yl)-6-(4-fluoro-3-isopropyl-phenyl)-imidazo[1,2-a]pyrazine]	15.7
COc1ccc(-c2c(C(F)(F)F)nc3cnc(-c4cccc(C(F)(F)C(F)(F)F)c4)cn23)cc1O [Example 30, 2-methoxy-5-[2-(trifluoromethyl)-6-[3-(pentafluoroethyl)phenyl]imidazo[1,2-a]pyrazin-3-yl]phenol]	11.1
CC(C)c1nc2cnc(-c3cccc(C(F)(F)F)c3)cn2c1-c1c(F)cc(O)cc1F [Example 19, 3,5-difluoro-4-[2-(propan-2-yl)-6-[3-(trifluoromethyl)phenyl]imidazo[1,2-a]pyrazin-3-yl]phenol]	7.5
CC(C)Oc1cc(-c2cn3c(-c4ccc5[nH]ncc5c4F)c(C(F)(F)F)nc3cn2)ccc1F [Example 81, 3-(4-Fluoro-1H-indazol-5-yl)-6-(4-fluoro-3-isopropoxy-phenyl)-2-trifluoromethyl-imidazo[1,2-a]pyrazine]	9.2
Fc1ccc(-c2cn3c(-c4ccc5[nH]ncc5c4F)c(C(F)(F)F)nc3cn2)cc1C1CCC1 [Example 82, 6-(3-Cyclobutyl-4-fluoro-phenyl)-3-(4-fluoro-1H-indazol-5-yl)-2-trifluoromethyl-imidazo[1,2-a]pyrazine]	6.1
Fc1ccc(-c2cn3c(-c4ccc5[nH]ncc5c4F)c(C(F)(F)F)nc3cn2)cc1OC(F)(F)F [Example 71, 3-(4-Fluoro-1H-indazol-5-yl)-6-(4-fluoro-3-trifluoromethoxy-phenyl)-2-trifluoromethyl-imidazo[1,2-a]pyrazine]	12.2
Fc1c(-c2c(C(F)(F)F)nc3cnc(-c4ccnc(C(F)(F)F)c4)cn23)ccc2[nH]ncc12 [Example 88, 3-(4-Fluoro-1H-indazol-5-yl)-2-trifluoromethyl-6-(2-trifluoromethyl-pyridin-4-yl)-imidazo[1,2-a]pyrazine]	7.0

Compound	Cytotox HepG2 [µM]
Oc1cc(F)c(-c2c(C3CCC3)nc3cnc(-c4ccc(F)c(C(F)(F)F)c4)cn23)c(F)c1 [Example 35, 4-(2-cyclobutyl-6-(4-fluoro-3-(trifluoromethyl)phenyl)imidazo[1,2-a]pyrazin-3-yl)-3,5-difluorophenol]	5.7
CC(C)c1cc(-c2cn3c(-c4ccc5[nH]ncc5c4Cl)c(C(F)(F)F)nc3cn2)ccc1F [Example 83, 3-(4-Chloro-1H-indazol-5-yl)-6-(4-fluoro-3-isopropyl-phenyl)-2-trifluoromethyl-imidazo[1,2-a]pyrazine]	6.6
Fc1ccc(-c2cn3c(-c4ccc5[nH]ncc5c4F)c(C(F)(F)F)nc3cn2)cc1CC(F)(F)F [Example 69, 3-(4-Fluoro-1H-indazol-5-yl)-6-[4-fluoro-3-(2,2,2-trifluoro-ethyl)-phenyl]-2-trifluoromethyl-imidazo[1,2-a]pyrazine]	5.3
Cc1nc2cnc(-c3cccc(C(F)(F)C(F)(F)F)c3)cn2c1-c1c(F)cc(O)cc1F [Example 49, 3,5-difluoro-4-[2-methyl-6-[3-(pentafluoroethyl)phenyl]imidazo[1,2-a]pyrazin-3-yl]phenol]	9.3
CCc1nc2cnc(-c3cccc(C(F)(F)C(F)(F)F)c3)cn2c1-c1c(F)cc(O)cc1F [Example 52, 4-[2-Ethyl-6-(3-pentafluoroethyl-phenyl)-imidazo[1,2-a]pyrazin-3-yl]-3,5-difluoro-phenol]	8.0
CC(C)c1nc2cnc(-c3ccc(F)c(C(F)(F)F)c3)cn2c1-c1ccc2[nH]ncc2c1F [Example 2, 4-fluoro-5-{6-[4-fluoro-3-(trifluoromethyl)phenyl]-2-(propan-2-yl)imidazo[1,2-a]pyrazin-3-yl}-1H-indazole]	10.4
CC(C)c1nn2cnc(-c3cccc(C(F)(F)F)c3)cc2c1-c1c(F)cc(O)cc1F [Example 24, 3,5-difluoro-4-(2-isopropyl-5-(3-(trifluoromethyl)phenyl)pyrazolo[1,5-c]pyrimidin-3-yl)phenol]	8.4
Fc1ccc(-c2cn3c(-c4ccc5[nH]ncc5c4F)c(C(F)(F)F)nc3cn2)cc1C(F)(F)C(F)(F)F [Example 63, 3-(4-Fluoro-1H-indazol-5-yl)-6-(4-fluoro-3-pentafluoroethyl-phenyl)-2-trifluoromethyl-imidazo[1,2-a]pyrazine]	11.7
CC(C)c1nc2cnc(-c3cccc(C(F)(F)F)c3)nc2n1-c1ccc(O)cc1F [Example 90, 3-fluoro-4-[8-(propan-2-yl)-2-[3-(trifluoromethyl)phenyl]-9H-purin-9-yl]phenol]	9.3
Cc1nc2cnc(-c3cccc(C(F)(F)F)c3)cn2c1-c1c(F)cc(O)cc1F [Example 15, 3,5-difluoro-4-[2-methyl-6-[3-(trifluoromethyl)phenyl]imidazo[1,2-a]pyrazin-3-yl]phenol]	8.4
CC(C)c1cc(-c2cn3c(-c4ccc5[nH]ncc5c4F)c(C4CCC4)nc3cn2)ccc1F [Example 77, 2-Cyclobutyl-3-(4-fluoro-1H-indazol-5-yl)-6-(4-fluoro-3-isopropyl-phenyl)-imidazo[1,2-a]pyrazine]	10.8
CC(C)c1cc(-c2cn3c(-c4ccc5[nH]ncc5c4F)c(C(F)(F)F)nc3cn2)ccc1F [Example 67, 3-(4-Fluoro-1H-indazol-5-yl)-6-(4-fluoro-3-isopropyl-phenyl)-2-trifluoromethyl-imidazo[1,2-a]pyrazine]	17.0
CC(C)c1nc2cnc(-c3cccc(S(F)(F)(F)(F)F)c3)cn2c1-c1c(F)cc(O)cc1F [Example 39, 3,5-difluoro-4-[2-(propan-2-yl)-6-[3-(pentafluorosulfanyl)phenyl]imidazo[1,2-a]pyrazin-3-yl]phenol]	6.6
Fc1ccc(-c2cn3c(-c4ccc5[nH]ncc5c4F)c(C4CC4)nc3cn2)cc1C(F)(F)F [Example 32, 4-fluoro-5-{2-cyclopropyl-6-[4-fluoro-3-(trifluoromethyl)phenyl]imidazo[1,2-a]pyrazin-3-yl}-1H-indazole]	16.1
CCc1nc2cnc(-c3ccc(F)c(C(F)(F)F)c3)cn2c1-c1c(F)cc(O)cc1F [Example 36, 3,5-difluoro-4-[2-ethyl-6-[4-fluoro-3-(trifluoromethyl)phenyl]imidazo[1,2-a]pyrazin-3-yl]phenol]	8.3
CC(C)c1cc(-c2cn3c(-c4ccc5[nH]ncc5c4F)c(C(C)C)nc3cn2)ccc1F [Example 74, 3-(4-Fluoro-1H-indazol-5-yl)-6-(4-fluoro-3-isopropyl-phenyl)-2-isopropyl-imidazo[1,2-a]pyrazine]	11.0
Fc1ccc(-c2cn3c(-c4ccc5[nH]ncc5c4F)c(C(F)(F)F)nc3cn2)cc1C1CC1 [Example 84, 6-(3-Cyclopropyl-4-fluoro-phenyl)-3-(4-fluoro-1H-indazol-5-yl)-2-trifluoromethyl-imidazo[1,2-a]pyrazine]	10.5
